Experimental data: US6737383B1, “Herbicidal oxadiazolidines” (priority 1999, dated 2004)

Tests used:
bedstraw = test: Test B pre/postemergence bedstraw; assay type: in vivo, Galium aparine
Outline: (§1)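 Herbicidal effect was estimated by eye on a ten-point control scale after plants spent twelve to sixteen days in a greenhouse following soil or foliar treatment. Foliar sprays targeted plants at one to four leaves; all doses were formulated in a non-phytotoxic solvent with surfactant.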

blackgrass = test: Test B pre/postemergence blackgrass; assay type: in vivo, Alopecurus myosuroides
Outline: as §1

surinam grass = test: Test B pre/postemergence surinam grass; assay type: in vivo, Brachiaria decumbens
Outline: as §1

corn = test: Test B pre/postemergence corn; assay type: in vivo, Zea mays
Outline: as §1

giant foxtail = test: Test B pre/postemergence giant foxtail; assay type: in vivo, Setaria faberii
Outline: as §1

morningglory = test: Test B pre/postemergence morningglory; assay type: in vivo, Ipomoea hederacea
Outline: as §1

pigweed = test: Test B pre/postemergence pigweed; assay type: in vivo, Amaranthus retroflexus
Outline: as §1

rape = test: Test B pre/postemergence rape; assay type: in vivo, Brassica napus
Outline: as §1

soybean = test: Test B pre/postemergence soybean; assay type: in vivo, Glycine max
Outline: as §1

sugar beet = test: Test B pre/postemergence sugar beet; assay type: in vivo, Beta vulgaris
Outline: as §1

velvetleaf = test: Test B pre/postemergence velvetleaf; assay type: in vivo, Abutilon theophrasti
Outline: as §1

purple nutsedge = test: Test B pre/postemergence purple nutsedge; assay type: in vivo, Cyperus rotundus
Outline: as §1

rice = test: Test B flood test rice; assay type: in vivo, Oryza sativa
Outline: (§2)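 Flood test on plants grown to the 2-leaf stage; treated plants kept in greenhouse twelve to sixteen days, then visually rated against controls on a 0 (no effect) to 10 (complete control) scale.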

smallflower flatsedge = test: Test B flood test smallflower flatsedge; assay type: in vivo, Cyperus difformis
Outline: as §2

duck salad = test: Test B flood test duck salad; assay type: in vivo, Heteranthera limosa
Outline: as §2

bamyardgrass = test: Test B flood test barnyardgrass; assay type: in vivo, Echinochloa crus-galli
Outline: as §2

[1] = Postemergence, Rate 125 g/ha, scale of 0 to 10 where 0 is no effect and 10 is complete control
[2] = Preemergence, Rate 125 g/ha, 0 is no effect, 10 is complete control
[3] = Preemergence, Rate 250 g/ha, scale 0 to 10, 0 is no effect, 10 is complete control
[4] = Preemergence, Rate 500 g/ha, scale 0 to 10 (0 no effect, 10 complete control)
[5] = Rate 62 g/ha, Postemergence, scale of 0 to 10 where 0 is no effect and 10 is complete control
[6] = Rate 250 g/ha, Postemergence, scale 0 to 10, 0 is no effect, 10 is complete control
[7] = Preemergence, Rate 62 g/ha, scale 0 to 10 (0 no effect, 10 complete control)
[8] = Rate 500 g/ha, Postemergence, scale 0 to 10
[9] = Postemergence (flood test species), Rate 125 g/ha, scale of 0 to 10 where 0 is no effect and 10 is complete control
[10] = Rate 62 g/ha, Postemergence section, flood test species, scale of 0 to 10 where 0 is no effect and 10 is complete control
[11] = Rate 250 g/ha, Postemergence (flood test), scale 0 to 10, 0 is no effect, 10 is complete control
[12] = Rate 500 g/ha, listed under Postemergence (flood test species), scale 0 to 10

## Cc1ccccc1Cn1c(=O)on(C(=O)N(c2ccc(Cl)cc2)C(C)C)c1=O [Compound 136]
bedstraw; [1]
  Bedstraw plant response rating: 5
bedstraw; [2]
  Bedstraw plant response rating (0 to 10 scale): 0
bedstraw; [3]
  Bedstraw plant response rating: 0
bedstraw; [4]
  Bedstraw plant response rating: 0
bedstraw; [5]
  Bedstraw plant response rating: 2
bedstraw; [6]
  Plant response rating, Bedstraw: 8
blackgrass; [1]
  Blackgrass plant response rating: 0
blackgrass; [7]
  Blackgrass plant response rating: 0
blackgrass; [2]
  Blackgrass plant response rating (0 to 10 scale): 4
blackgrass; [3]
  Blackgrass plant response rating: 4
blackgrass; [4]
  Blackgrass plant response rating: 6
blackgrass; [5]
  Blackgrass plant response rating: 0
blackgrass; [6]
  Plant response rating, Blackgrass: 3
blackgrass; [8]
  Blackgrass plant response rating: 5
Surinam grass; [1]
  B. signalgrass plant response rating: 0
Surinam grass; [7]
  B. signalgrass plant response rating: 3
Surinam grass; [2]
  B. signalgrass plant response rating (0 to 10 scale): 3
Surinam grass; [3]
  B. signalgrass plant response rating: 5
Surinam grass; [4]
  B. signalgrass plant response rating: 5
Surinam grass; [5]
  B. signalgrass plant response rating: 0
Surinam grass; [6]
  Plant response rating, B. signalgrass: 1
Surinam grass; Rate 500 g/ha, Postemergence, scale of 0 to 10 where 0 is no effect and 10 is complete control
  B. signalgrass plant response rating: 3
corn; [1]
  Corn plant response rating: 0
corn; [7]
  Corn plant response rating: 0
corn; [2]
  Corn plant response rating (0 to 10 scale): 0
corn; [3]
  Corn plant response rating: 0
corn; [4]
  Corn plant response rating: 0
corn; [5]
  Corn plant response rating: 0
corn; [6]
  Plant response rating, Corn: 0
corn; [8]
  Corn plant response rating: 0
Giant foxtail; [1]
  Giant foxtail plant response rating: 4
Giant foxtail; [7]
  Giant foxtail plant response rating: 0
Giant foxtail; [2]
  Giant foxtail plant response rating (0 to 10 scale): 4
Giant foxtail; [3]
  Giant foxtail plant response rating: 10
Giant foxtail; [4]
  Giant foxtail plant response rating: 10
Giant foxtail; [5]
  Giant foxtail plant response rating: 0
Giant foxtail; [6]
  Plant response rating, Giant foxtail: 7
Giant foxtail; [8]
  Giant foxtail plant response rating: 7
morningglory; [1]
  Morningglory plant response rating: 10
morningglory; [7]
  Morningglory plant response rating: 0
morningglory; [2]
  Morningglory plant response rating (0 to 10 scale): 0
morningglory; [3]
  Morningglory plant response rating: 0
morningglory; [4]
  Morningglory plant response rating: 0
morningglory; [5]
  Morningglory plant response rating: 6
morningglory; [6]
  Plant response rating, Morningglory: 10
morningglory; [8]
  Morningglory plant response rating: 10
pigweed; [1]
  Redroot pigweed plant response rating: 4
pigweed; [7]
  Redroot pigweed plant response rating: 7
pigweed; [2]
  Redroot pigweed plant response rating (0 to 10 scale): 8
pigweed; [3]
  Redroot pigweed plant response rating: 10
pigweed; [4]
  Redroot pigweed plant response rating: 10
pigweed; [5]
  Redroot pigweed plant response rating: 3
pigweed; [6]
  Plant response rating, Redroot pigweed: 6
pigweed; [8]
  Redroot pigweed plant response rating: 6
rape; [1]
  Rape plant response rating: 0
rape; [7]
  Rape plant response rating: 0
rape; [2]
  Rape plant response rating (0 to 10 scale): 0
rape; [3]
  Rape plant response rating: 0
rape; [4]
  Rape plant response rating: 0
rape; [5]
  Rape plant response rating: 0
rape; [6]
  Plant response rating, Rape: 2
rape; [8]
  Rape plant response rating: 4
soybean; [1]
  Soybean plant response rating: 4
soybean; [7]
  Soybean plant response rating: 0
soybean; [2]
  Soybean plant response rating (0 to 10 scale): 0
soybean; [3]
  Soybean plant response rating: 0
soybean; [4]
  Soybean plant response rating: 0
soybean; [5]
  Soybean plant response rating: 3
soybean; [6]
  Plant response rating, Soybean: 4
soybean; [8]
  Soybean plant response rating: 5
Sugar beet; [1]
  Sugarbeets plant response rating: 4
Sugar beet; [7]
  Sugarbeets plant response rating: 4
Sugar beet; [2]
  Sugarbeets plant response rating (0 to 10 scale): 4
Sugar beet; [3]
  Sugarbeets plant response rating: 8
Sugar beet; [4]
  Sugarbeets plant response rating: 9
Sugar beet; [5]
  Sugarbeets plant response rating: 3
Sugar beet; [6]
  Plant response rating, Sugarbeets: 7
Sugar beet; [8]
  Sugarbeets plant response rating: 8
velvetleaf; [1]
  Velvetleaf plant response rating: 0
velvetleaf; [7]
  Velvetleaf plant response rating: 0
velvetleaf; [2]
  Velvetleaf plant response rating (0 to 10 scale): 0
velvetleaf; [3]
  Velvetleaf plant response rating: 0
velvetleaf; [4]
  Velvetleaf plant response rating: 4
velvetleaf; [5]
  Velvetleaf plant response rating: 0
velvetleaf; [6]
  Plant response rating, Velvetleaf: 0
velvetleaf; [8]
  Velvetleaf plant response rating: 2
Purple nutsedge; [1]
  Nutsedge plant response rating: 0
Purple nutsedge; [7]
  Nutsedge plant response rating: 0
Purple nutsedge; [2]
  Nutsedge plant response rating (0 to 10 scale): 0
Purple nutsedge; [3]
  Nutsedge plant response rating: 0
Purple nutsedge; [5]
  Nutsedge plant response rating: 0
Purple nutsedge; [6]
  Plant response rating, Nutsedge: 0
Purple nutsedge; [8]
  Nutsedge plant response rating: 0
rice; [9]
  Rice plant response rating: 0
rice; [10]
  Rice plant response rating: 0
rice; [11]
  Plant response rating, Rice: 0
rice; [12]
  Rice plant response rating: 0
Smallflower flatsedge; [9]
  S. Flatsedge plant response rating: 0
Smallflower flatsedge; [10]
  S. Flatsedge plant response rating: 0
Smallflower flatsedge; [11]
  Plant response rating, S. Flatsedge: 0
Smallflower flatsedge; [12]
  S. Flatsedge plant response rating: 0
Duck salad; [9]
  Ducksalad plant response rating: 0
Duck salad; [10]
  Ducksalad plant response rating: 0
Duck salad; [11]
  Plant response rating, Ducksalad: 0
Duck salad; [12]
  Ducksalad plant response rating: 0
bamyardgrass; [9]
  Barnyardgrass plant response rating: 0
bamyardgrass; [10]
  Barnyardgrass plant response rating: 0
bamyardgrass; [11]
  Plant response rating, Barnyardgrass: 0
bamyardgrass; Rate 500 g/ha, listed under Postemergence (flood test species), scale 0 to 10, 0 no effect, 10 complete control
  Barnyardgrass plant response rating: 0
